Measurements reported in paper PMC4249970 (PLoS ONE, 2014).

How the values were obtained:
[1] = tested on: acetic acid-induced writhing in CD-1 male mice; test: acetic acid writhing test (model of visceral pain); format: in vivo; conditions: for number of stretches: writhing test 30 minutes after antagonist
Description: After acetic acid administration, mice were placed in individual transparent containers and, after 5 min, the number of writhes was counted during a 10 min period.
The animals, CD-1 male mice (25–27 g), were redistributed in groups, two of which were used as the control group. […] All drugs were intraperitoneally (i.p.) administered, 30 minutes before the algogen agent. Control mice were treated with 10 ml/kg of saline solution. Each group included 10–12 animals; those animals showing behavioral alterations were previously discarded. Each animal was used only once. An observer who was unaware of the different treatments carried out the collection of data.
The experimental test used was the acetic acid writhing test. The effect of the i.p. administration of 10 ml/kg of acetic acid (2%) was measured by quantifying the number of writhing responses in the three groups of animals over a 10 minutes period. Responses were measured starting 5 minutes after the algogen agent was administered. The animals used were supplied by the animal house of Universidad Rey Juan Carlos. Room temperature was kept at 22±1°C. A 12 hours light - dark cycle was started at 8:00 a.m., at constant humidity. All animals were given free access to food and water.

TRPA1 [2] = molecular target: T1, TRPA1 (Homo sapiens, UniProt O75762); test: whole-cell voltage clamp of AITC-evoked currents in hTRPA1-expressing IMR-90 cells; format: cell-based; set-up: expressed in transfected cells; host or cells: IMR-90; conditions: 100 µM AITC
T1 sequence (O75762 whole entry): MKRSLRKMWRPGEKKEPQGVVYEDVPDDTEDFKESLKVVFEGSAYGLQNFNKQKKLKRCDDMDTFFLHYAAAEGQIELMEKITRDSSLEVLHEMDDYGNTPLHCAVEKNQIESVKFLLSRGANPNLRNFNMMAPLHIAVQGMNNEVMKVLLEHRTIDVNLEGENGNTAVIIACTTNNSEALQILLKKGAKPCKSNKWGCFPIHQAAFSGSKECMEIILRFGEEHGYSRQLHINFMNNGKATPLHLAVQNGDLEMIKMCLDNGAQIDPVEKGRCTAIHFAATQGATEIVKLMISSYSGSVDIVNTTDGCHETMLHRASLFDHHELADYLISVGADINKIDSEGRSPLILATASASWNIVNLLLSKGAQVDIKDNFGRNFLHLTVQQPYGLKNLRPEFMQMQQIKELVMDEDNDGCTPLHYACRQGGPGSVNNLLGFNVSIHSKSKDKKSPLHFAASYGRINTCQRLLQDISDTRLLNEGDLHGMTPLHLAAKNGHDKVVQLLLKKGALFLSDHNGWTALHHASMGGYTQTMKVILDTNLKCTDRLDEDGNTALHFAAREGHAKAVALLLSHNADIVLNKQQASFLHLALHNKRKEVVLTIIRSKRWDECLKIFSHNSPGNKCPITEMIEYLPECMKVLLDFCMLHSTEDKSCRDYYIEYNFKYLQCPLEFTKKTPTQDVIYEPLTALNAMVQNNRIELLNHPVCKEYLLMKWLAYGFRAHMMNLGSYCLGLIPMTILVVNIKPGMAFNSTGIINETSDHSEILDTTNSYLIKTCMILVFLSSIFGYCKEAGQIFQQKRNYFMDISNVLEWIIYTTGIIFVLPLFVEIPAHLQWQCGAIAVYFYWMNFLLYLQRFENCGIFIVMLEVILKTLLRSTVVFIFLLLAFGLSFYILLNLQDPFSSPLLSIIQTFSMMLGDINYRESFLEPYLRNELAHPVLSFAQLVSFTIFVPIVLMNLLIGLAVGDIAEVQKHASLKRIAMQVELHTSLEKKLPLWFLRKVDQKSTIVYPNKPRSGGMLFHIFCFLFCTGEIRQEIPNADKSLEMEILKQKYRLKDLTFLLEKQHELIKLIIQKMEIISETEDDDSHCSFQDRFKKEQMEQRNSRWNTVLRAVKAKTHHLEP
Description: A) Representative whole-cell voltage clamp recording from hTRPA1-expressing IMR-90. Currents were measured every second during a holding potential of -60 mV. Pre-application of 6a/b (20 s) was followed by co-application with 100 µM AITC for 60s in presence of 2.0 mM extracellular Ca^2+. Current traces of different colours denote the different concentrations of compound 6a/b tested. B) Dose response of compound 6a/b blockade activity. Solid line depicts the fitting to a Michaelis isotherm. […] Data are given as mean ± sem, with n≥4 cells) per data point. (TIF) Click here for additional data file.
A) Representative whole-cell voltage clamp recording from hTRPA1-expressing IMR-90 cells in the absence of extracellular Ca^2+. Ionic currents, at positive and negative potentials were measured every 2s during a 350 ms voltage ramp from −60 mV to +60 mV and evoked with 100 µM AITC followed by the addition of 100 µM compound 6a/b for 20s. AITC was present with drug application and after application to evaluated current reversibility B) Current-voltage relationships of TRPA1 in the absence and presence of 100 µM compound 6a/b in Ca^2+ free medium. […] Data were obtained from n≥4 cells. (TIF) Click here for additional data file.

TRPV1 = test: Ca2+ fluorographic assay, TRPV1-SH-SY5Y cells activated by 10 µM capsaicin; format: cell-based; conditions: 50 µM compound
Description: (§1) For fluorescence assays, cells expressing TRP channels (TRPV1-SH-SY5Y, TRPM8-HEK and TRPA1-IMR90) were seeded in 96-well plates (Corning Incorporated, Corning, NY) at a cell density of 40,000 cells 2 days before treatment. The day of treatment the medium was replaced with 100 µL of the dye loading solution Fluo-4 NW supplemented with probenecid 2.5 mM. Then the compounds dissolved in DMSO were added at the desired concentrations and the plate(s) were incubated at 37°C in a humidified atmosphere of 5% CO2 for 60 minutes.
(§2) The fluorescence was measured using instrument settings appropriate for excitation at 485 nm and emission at 535 nm. (POLARstar Omega BMG LAB tech). A baseline recording of 7 cycles was recorded prior to stimulation with the agonist (10 µM capsaicin for TRPV1, 100 µM menthol for TRPM8, and 100 µM AITC for TRPA1). The corresponding antagonist (10 µM Ruthenium Red for TRPV1 and TRPA1, 100 µM AMTB for TRPM8) was added for the blockade. The changes in fluorescence intensity were recorded during 15 cycles more. DMSO, at the higher concentration used in the experiment, was added to the control wells.
(§3) The degree of blockage (%) of TRP channel activity was calculated by: [drawing 1]

TRPA1 [3] = molecular target: T1, TRPA1; test: Ca2+ fluorographic assay, TRPA1-IMR90 cells activated with 100 µM AITC; format: cell-based; set-up: expressed in transfected cells; host or cells: IMR90
Description: as §1, §2, §3

human recombinant COX-2 = molecular target: T2, human recombinant COX-2 (Homo sapiens, UniProt P35354); test: COX inhibitor screening assay (Cayman kit 700100); format: biochemical; conditions: at 10 mM
T2 construct: purchased Cayman Chemical Company kit 700100
T2 sequence (P35354 18-604): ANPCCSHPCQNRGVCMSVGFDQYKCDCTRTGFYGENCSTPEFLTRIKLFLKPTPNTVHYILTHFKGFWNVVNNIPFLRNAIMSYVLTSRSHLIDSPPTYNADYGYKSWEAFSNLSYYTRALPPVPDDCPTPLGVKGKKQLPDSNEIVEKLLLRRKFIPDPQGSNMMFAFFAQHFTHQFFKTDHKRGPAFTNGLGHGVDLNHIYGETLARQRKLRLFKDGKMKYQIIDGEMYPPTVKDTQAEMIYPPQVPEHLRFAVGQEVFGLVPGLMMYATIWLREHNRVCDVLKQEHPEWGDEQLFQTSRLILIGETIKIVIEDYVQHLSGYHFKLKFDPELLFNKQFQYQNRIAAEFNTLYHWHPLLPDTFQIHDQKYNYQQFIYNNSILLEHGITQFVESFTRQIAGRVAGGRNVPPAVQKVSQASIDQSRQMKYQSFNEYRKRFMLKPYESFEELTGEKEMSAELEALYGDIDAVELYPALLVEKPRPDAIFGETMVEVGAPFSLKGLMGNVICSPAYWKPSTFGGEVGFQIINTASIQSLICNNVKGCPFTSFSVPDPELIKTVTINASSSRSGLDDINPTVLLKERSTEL
Description: A COX inhibitor screening assay (kit 700100) was used to determine the activity of isolated ovine COX-1 and human recombinant COX-2 as described by the manufacturer (Cayman Chemical Company, USA).

TRPM8 = molecular target: T3, TRPM8 (Homo sapiens, UniProt Q7Z2W7); test: Ca2+ fluorographic assay, TRPM8-HEK cells activated with 100 µM menthol; format: cell-based; conditions: 50 µM compound
T3 construct: expressed in transfected cells; host or cells: HEK
T3 sequence (Q7Z2W7 whole entry, species assumed): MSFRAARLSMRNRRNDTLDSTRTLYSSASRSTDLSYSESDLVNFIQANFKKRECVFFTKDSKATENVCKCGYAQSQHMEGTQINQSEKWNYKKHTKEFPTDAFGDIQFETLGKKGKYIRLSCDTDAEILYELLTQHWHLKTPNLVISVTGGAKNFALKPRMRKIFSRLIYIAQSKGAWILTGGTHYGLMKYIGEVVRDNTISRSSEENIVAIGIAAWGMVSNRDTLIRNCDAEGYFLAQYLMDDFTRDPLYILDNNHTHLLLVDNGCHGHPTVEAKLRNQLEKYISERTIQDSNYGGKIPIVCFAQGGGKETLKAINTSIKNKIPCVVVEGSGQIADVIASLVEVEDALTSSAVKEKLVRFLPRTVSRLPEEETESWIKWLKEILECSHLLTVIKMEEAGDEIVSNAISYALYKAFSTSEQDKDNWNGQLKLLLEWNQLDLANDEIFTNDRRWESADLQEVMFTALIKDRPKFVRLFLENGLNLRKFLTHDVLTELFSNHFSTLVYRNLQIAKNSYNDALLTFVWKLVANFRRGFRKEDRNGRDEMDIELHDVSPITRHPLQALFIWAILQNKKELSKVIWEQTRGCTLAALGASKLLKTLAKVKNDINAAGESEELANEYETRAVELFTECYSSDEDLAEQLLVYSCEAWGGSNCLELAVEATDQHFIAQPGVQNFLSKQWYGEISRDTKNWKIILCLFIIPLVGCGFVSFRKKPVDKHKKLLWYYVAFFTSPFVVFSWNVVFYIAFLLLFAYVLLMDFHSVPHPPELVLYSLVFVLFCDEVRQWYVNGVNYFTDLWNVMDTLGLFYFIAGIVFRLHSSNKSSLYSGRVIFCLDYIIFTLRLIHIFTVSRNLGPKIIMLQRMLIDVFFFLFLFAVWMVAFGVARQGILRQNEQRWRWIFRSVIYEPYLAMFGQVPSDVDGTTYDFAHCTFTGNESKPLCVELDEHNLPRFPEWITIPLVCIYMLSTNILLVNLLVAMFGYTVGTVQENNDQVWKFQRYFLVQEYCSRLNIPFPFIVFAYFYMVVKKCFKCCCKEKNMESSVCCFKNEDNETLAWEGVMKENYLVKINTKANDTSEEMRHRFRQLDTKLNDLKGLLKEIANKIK
Description: as §1, §2, §3

[4] = i.p. 30 minutes before acetic acid

CC(=O)NC12CC3CC(CC(O)(C3)C1)C2 [compound 5, N-3-hydroxyadamantan-1-yl acetamide]
dose at which the analgesic effect saturated [1, 4]: 200 mg/kg | antinociceptive activity ([1]; i.p. 30 minutes before acetic acid, similar to paracetamol): ~40%

CC(=O)NC1C2CC3CC1CC(O)(C3)C2 (stereo not shown) [compound 6a, N-5-hydroxyadamantan-2-yl acetamide]
melting point: 184 °C

CC(=O)NC1C2CC3CC1CC(O)(C3)C2 (stereo not shown) [compound 6a/b, N-5-hydroxyadamantan-2-yl acetamide]
analgesic efficacy at saturation, compared with paracetamol and morphine ([1]; at saturation (750 mg/kg i.p.)): significantly higher than paracetamol and similar to morphine | number of stretches ([1]; compound given 30 minutes before CB1 antagonist AM251 (3 mg/kg i.p.)): 13±1 | number of stretches ([1]; compound given 30 minutes before CB2 antagonist AM630 (1 mg/kg i.p.)): 15.5±1.7 | dose at which the analgesic effect saturated [1, 4]: 750 mg/kg | IC50 (TRPA1 [2]; 2.0 mM extracellular Ca2+, holding potential -60 mV, estimated, read-out: IC50 of blockade of TRPA1-mediated currents): 10.6 ± 0.7 µM | IC50 (TRPA1 [2]; absence of extracellular Ca2+, inferred, saturation of blockade not reached, read-out: IC50 of blockade of TRPA1 currents): ≥ 80 µM | effect on TRPV1 channel activity (TRPV1): No significative effect | blockade of TRPA1 channel activity (TRPA1 [3]; 50 µM compound, 100 µM AITC): up to 85% | IC50 (TRPA1 [3]; dose-response curve, 100 µM AITC, mean ± SEM, n ≥5, read-out: TRPA1 inhibition IC50): 2600 nM | nH (hill coefficient) of TRPA1 inhibition (TRPA1 [3]; fit to a binding isotherm): 0.21 | effect on COX-2 enzymatic activity (human recombinant COX-2): did not affect the enzymatic activity | effect on TRPM8 channel activity (TRPM8): No significative effect

CC(=O)Nc1ccc(O)cc1 [paracetamol, 4-hydroxyacetanilide, reference compound]
reduction of the nociceptic behavior (writhes) ([1]; 100 mg/kg i.p. 30 minutes before acetic acid): 40%
